In assay [1] the test system is post-reperfusion arrhythmia of isolated rat heart. In words: Antiarrhythmic activity in the post-reperfusion model in isolated rat heart. The conditions noted are these: reperfusion; for Extrasystoles (%) / Fibrillations (%) / Tachycardia (%): % occurrence; for Arrhythmia Severity Index: Bernauer scale. Here is the method:
Hearts form Wistar rats were isolated and immersed in Chenoweth–Koelle solution (120 mM NaCl; 5 mM KCl; 2.2 mM MgCl2; […]; 2.4 mM CaCl2; 10 mM glucose). Hearts were perfused according to the Langendorff model under a constant pressure of 70 cm H2O (6.87 kPa) with a solution at 37 °C, pH 7.4, constantly oxygenated (O2/CO2, 19:1) using the MyoHEART Langendorff System-900MH (Danish Myo Technology, Hinnerup, Denmark), which monitored the ECG. After 20 min stabilization period, acute myocardial ischemia was induced locally by installing a clamp on the left coronary artery (ischemic period). After 15 min, the clamp was removed, and ECG changes were monitored for 30 min (reperfusion period). The tested compound was added to the perfusion solution 15 min before coronary artery clamping. The point scale described by Bernauer was used to assess the antiarrhythmic activity in this arrhythmia model. The occurrence of a specific type of heart rhythm disturbance during the reperfusion period was scored according to the following scale: • occurrence of less than 10 extrasystoles—1 point; • occurrence of more than 10 extrasystoles—2 points; • presence of ventricular tachycardia—3 points; • presence of fibrillation—4 points.

Assay [2] relates to adrenaline-induced arrhythmia in rats. In words: Prophylactic antiarrhythmic activity in adrenaline-induced arrhythmia. The format is in vivo, rat.
The test system is the same in assay [3]. In words: Therapeutic antiarrhythmic activity in adrenaline-induced arrhythmia. The format is in vivo, rat. As to the method: The experiments were carried out according to the method described by Szekeres and Papp. The heart rhythm disturbances were evoked by intravenous administration of adrenaline (20 µg/kg) to anesthetized rats (thiopental, 75 mg/kg). The tested compound was administered iv immediately after the injection of adrenaline, at dose 5 mg/kg. The ECG was recorded during the first 2 min and in the 5th, 10th, and 15th min after the adrenaline injection. […] The criterion of antiarrhythmic activity was the decrease or complete absence of extrasystoles, atrioventricular blocks and bradycardia in the ECG recording in comparison with the control group.

For assay [4], the target named is Ca2+ channel (L, verapamil site). In words: Radioligand binding assay for Ca2+ channel ([3H]-D888). On the set-up: species or system rat. The conditions noted are these: rat cortex tissue; [3H]-D888. As to the method:
The radioligand binding studies for K^+ and Ca^2+ channels were performed commercially by Eurofins Cerep (Celle l’Evescault, France) using testing procedures described elsewhere. […]

In assay [5] the test system is aconitine-induced arrhythmia in rats. In words: Prophylactic antiarrhythmic activity in aconitine-induced arrhythmia. As to conditions: rat, in vivo, 5 mg/kg. It counts as in vivo, rat.
Assay [6] relates to isolated ischemic rat hearts. On the set-up: method as in PMID 9228191. The conditions noted are these: cited from earlier work.
The test system of assay [7] is arrhythmia caused by cardiac ischemia in dogs. Also on record: method as in PMID 7528295. As to conditions: dogs after myocardial infarction; cited from earlier work.
Setting [8] is: adrenaline 20 μg/kg iv, dose 0.25 mg/kg iv 15 min before, % occurrence.
The mark [9] stands for this setting: 5 mg/kg iv immediately after adrenaline, % occurrence.

Each structure is given as a SMILES string. Marks after values point to notes of the source that are not given here.

The text below walks through data of paper PMC8625052, “The Antiarrhythmic Activity of Novel Pyrrolidin-2-one Derivative S-75 in Adrenaline-Induced Arrhythmia” (Pharmaceuticals, 2021).

For orientation: ED50 means the midpoint of the dose-response relation. For orientation: IC50 means the point on the concentration scale where inhibition reaches its midpoint.

Take `CCCCc1oc2ccccc2c1C(=O)c1cc(I)c(OCCN(CC)CC)c(I)c1` [Amiodarone]: in assay [1] (concentration 10^−9 M), the “Extrasystoles (%)” value is listed as 100%, the “Fibrillations (%)” value amounted to 66.7%, the “Tachycardia (%)” value is reported as 100% and the “Arrhythmia Severity Index” value stood at 7.7.

On to `COc1ccccc1OCCNCC(O)COc1cccc2[nH]c3ccccc3c12` (stereo not drawn) [Carvedilol, reference compound], for which the ED50 in assay [2] (Rattus norvegicus, prophylactic, iv 15 min before adrenaline 20 μg/kg, Litchfield and Wilcoxon, limits in brackets, read-out: ED50 (a dose producing a 50% inhibition of ventricular contractions)) came to 0.36 mg/kg. In addition, in assay [2] (setting [8]), the “Blocks (%)” value stood at 100%, the “Bradycardia (%)” value was found to be 16.6%, the “Extrasystoles (%)” value was 100% and the “Mortality (%)” value stood at 66.7%. The “decrease of the number of adrenaline-induced extrasystoles” value in assay [3] (5 mg/kg iv immediately after adrenaline 20 µg/kg, compared to the vehicle-treated group) turned out to be 95.2%. Further, in assay [3] (setting [9]), the “Blocks (%)” value was 83.3% and the “Mortality (%)” value is reported as 16.7%.

As for `COc1ccc(CCN(C)CCCC(C#N)(c2cc(OC)c(OC)c(OC)c2)C(C)C)cc1OC` [D-600, reference compound], in assay [4], the IC50 came out at 0.037 µM.

Take `CCCNCC(O)COc1ccccc1C(=O)CCc1ccccc1` (stereo not drawn) [Propafenone, reference compound]: in assay [5], the “Blocks (%)” value was 83.3%, the “Bradycardia (%)” value was found to be 100%, the “Extrasystoles (%)” value is 66.7% and the “Fibrillations (%)” value is reported as 33.3%. In addition, the “Mortality (%)” value in assay [5] came to 16.6%. Besides, in assay [1] (concentration 10^−11 M), the “Extrasystoles (%)” value stood at 100%, the “Fibrillations (%)” value came out at 33.3%, the “Tachycardia (%)” value was 66.7% and the “Arrhythmia Severity Index” value was determined as 6.7.

With `C=C[C@H]1C[N@@]2CC[C@H]1C[C@@H]2[C@@H](O)c1ccnc2ccc(OC)cc12` [Quinidine], in assay [1] (concentration 10^−6 M), the “Extrasystoles (%)” value amounted to 83.3%, the “Fibrillations (%)” value came to 0%, the “Tachycardia (%)” value is on record as 50% and the “Arrhythmia Severity Index” value is 2.3 *.

Consider `COc1cccc(OC)c1OCCNCC1COc2ccccc2O1` (stereo not drawn) [WB 4101], for which the “reduction of the incidence of ventricular fibrillation / arrhythmias” value in assay [6] was 49%.

With `Cc1ccc(N(CC2=NCCN2)c2cccc(O)c2)cc1` [phentolamine], in assay [6], the “reduction of the incidence of ventricular fibrillation / arrhythmias” value was 32%.

Consider `COc1cc2nc(N3CCN(C(=O)c4ccco4)CC3)nc(N)c2cc1OC` [prazosin], for which the “animals in which arrhythmia caused by cardiac ischemia was prevented” value in assay [7] was 78%. The “reduction of the incidence of ventricular fibrillation / arrhythmias” value in assay [6] is reported as 83%.
